Measurements: patent US9333272B2, “Fibrin binding peptide conjugates for diagnostic and therapeutic applications” (Bracco Imaging SpA, priority 2006, dated 2016)

Experiments:
[1] = molecular target: T1, fibrin in tumor, TRAMP prostate tumor (Mus musculus, UniProt E9PV24+Q8K0E8+Q8VCM7); assay: In vivo MRI, transgenic adenocarcinoma mouse prostate model (TRAMP), Example 17; settings: 100 μmol/kg iv; control
T1 construct: from tissue; host or cells: tumor stroma of living mice (BALB-neuT mammary tumor, TRAMP prostate tumor, Neuro-2a neuroblastoma in A/J mice)
T1 sequence (E9PV24 20-557 isoform E9PV24-2 limits assumed): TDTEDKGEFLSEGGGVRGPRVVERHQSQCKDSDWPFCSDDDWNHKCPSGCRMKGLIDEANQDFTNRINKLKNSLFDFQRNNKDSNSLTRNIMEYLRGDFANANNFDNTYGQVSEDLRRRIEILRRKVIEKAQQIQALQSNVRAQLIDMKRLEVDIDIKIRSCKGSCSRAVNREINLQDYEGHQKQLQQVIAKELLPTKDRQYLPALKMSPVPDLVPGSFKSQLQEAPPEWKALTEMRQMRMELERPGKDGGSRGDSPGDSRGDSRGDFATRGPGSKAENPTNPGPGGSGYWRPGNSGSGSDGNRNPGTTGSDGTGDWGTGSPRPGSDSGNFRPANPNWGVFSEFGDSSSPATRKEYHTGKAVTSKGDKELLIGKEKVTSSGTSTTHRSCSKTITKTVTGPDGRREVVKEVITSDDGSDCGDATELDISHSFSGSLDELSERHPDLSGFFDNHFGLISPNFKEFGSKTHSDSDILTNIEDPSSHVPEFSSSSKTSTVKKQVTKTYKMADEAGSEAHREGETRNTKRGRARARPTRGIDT
T1 sequence (Q8K0E8 35-481 limits assumed): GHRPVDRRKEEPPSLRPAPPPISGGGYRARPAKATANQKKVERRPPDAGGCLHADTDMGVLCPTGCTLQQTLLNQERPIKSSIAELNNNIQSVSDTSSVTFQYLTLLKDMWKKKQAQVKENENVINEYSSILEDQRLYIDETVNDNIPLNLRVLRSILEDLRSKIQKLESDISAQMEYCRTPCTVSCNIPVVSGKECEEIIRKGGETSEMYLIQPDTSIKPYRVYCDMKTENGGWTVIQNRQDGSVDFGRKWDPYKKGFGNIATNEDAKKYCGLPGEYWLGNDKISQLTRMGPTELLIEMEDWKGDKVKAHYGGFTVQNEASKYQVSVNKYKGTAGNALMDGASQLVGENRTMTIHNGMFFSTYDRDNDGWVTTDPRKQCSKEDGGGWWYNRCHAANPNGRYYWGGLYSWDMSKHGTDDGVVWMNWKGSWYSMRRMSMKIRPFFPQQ
T1 sequence (Q8VCM7 26-436): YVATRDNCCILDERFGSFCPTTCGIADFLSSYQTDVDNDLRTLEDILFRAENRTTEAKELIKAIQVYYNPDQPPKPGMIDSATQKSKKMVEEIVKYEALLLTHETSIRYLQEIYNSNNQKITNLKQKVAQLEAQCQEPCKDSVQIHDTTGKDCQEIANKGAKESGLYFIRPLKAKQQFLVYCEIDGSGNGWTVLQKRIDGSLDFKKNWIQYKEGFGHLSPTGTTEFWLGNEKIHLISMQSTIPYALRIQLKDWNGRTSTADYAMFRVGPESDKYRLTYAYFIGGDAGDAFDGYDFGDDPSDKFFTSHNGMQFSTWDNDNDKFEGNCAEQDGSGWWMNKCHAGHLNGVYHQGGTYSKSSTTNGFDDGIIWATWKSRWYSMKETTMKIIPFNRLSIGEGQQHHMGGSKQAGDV
Experimental: This test has been performed in a transgenic adenocarcinoma mouse prostate model (TRAMP) developed by introducing a PB promoter—SV40 T antigen fusion transgene (PB-Tag) into the germ line of C57BL/6 inbred mice.
Two TRAMP mice were treated with ProHance® at 100 μmol/kg iv (control), and the day after with Chelate Complex 2 or with Chelate Complex 5 at 25 μmol/kg iv. T1 weighted SE images were acquired pre- and post-contrast injection and the kinetic of enhancement in the tumor was followed up to 3 h post-test compound administration.

[2] = molecular target: T2, fibrin in tumor, mammary tumor mouse model (BALB-neuT) (Mus musculus, UniProt E9PV24+Q8K0E8+Q8VCM7); assay: In vivo MRI, mammary tumor mouse model (BALB-neuT), Example 16; settings: 100 μmol/kg; reference compound
T2 construct: from tissue; host or cells: tumor stroma of living mice (BALB-neuT mammary tumor, TRAMP prostate tumor, Neuro-2a neuroblastoma in A/J mice)
T2 sequence (E9PV24 20-557 isoform E9PV24-2 limits assumed): T1 sequence (E9PV24 20-557 isoform E9PV24-2 limits assumed)
T2 sequence (Q8K0E8 35-481 limits assumed): T1 sequence (Q8K0E8 35-481 limits assumed)
T2 sequence (Q8VCM7 26-436): T1 sequence (Q8VCM7 26-436)
Experimental: The test has been performed in a mammary tumor mouse model (BALB-neuT). Mice were treated with Chelate Complex 2 of the invention, 25 μmol/kg, injected iv, and with ProHance® at 100 μmol/kg. Signal enhancement of the tumor was followed up to 3 h after contrast administration.
Successive T1 weighted SE images were acquired pre- and post-injection of the test compounds and some examples are reported in FIGS. 6 and 7. Images are related to successive slices from the same mouse acquired at different time points post contrast. In particular, FIG. 6 includes images post-injection of chelate Complex 2 at 25 μmol/kg (arrows indicate tumor) and FIG. 7 includes analogous images post administration of ProHance®.

SMILES: CC(O)CN1CCN(CC(=O)[O-])CCN(CC(=O)[O-])CCN(CC(=O)[O-])CC1.[Gd+3] (centres unmarked) [ProHance®]
- Tumor signal enhancement (T1 weighted MRI), in words [1]: very weak signal enhancement
- Tumor signal enhancement (T1 weighted MRI), in words [2]: signal distribution only on the border and no signal enhancement inside the tumors after 55 min
